# In PubChem BioAssay (NCI):
#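 Abbreviation: GI50, concentration required for 50% inhibition of growth. TGI is the concentration that stops growth completely.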
# Legend:
# Test in all cases: NCI tumour cell line growth inhibition, 384-well format
# [1] = test system: RPMI-8226 leukemia
# [2] = test system: IGROV1 ovarian
# [3] = test system: K-562 leukemia
# [4] = test system: SK-OV-3 ovarian
# [5] = test system: A498 renal
# [6] = test system: NCI/ADR-RES ovarian
# [7] = test system: TK-10 renal
# [8] = test system: A549 NSCLC
# [9] = test system: NCI-H522 lung
# [10] = test system: 786-0 renal
# [11] = test system: ACHN renal
# [12] = test system: HS 578T breast
# [13] = test system: EKVX NSCLC
# [14] = test system: KM12 colon
# [15] = test system: SK-MEL-28 melanoma
# [16] = test system: MDA-MB-468 breast
# [17] = test system: OVCAR-8 ovarian
# [18] = test system: HOP-92 NSCLC
# [19] = test system: UO-31 renal
# [20] = test system: HT29 colon
# [21] = test system: HL-60(TB) leukemia
# [22] = test system: CCRF-CEM leukemia
# [23] = test system: PC-3 prostate
# [24] = test system: SF-295 CNS
# [25] = test system: DU-145 prostate
# [26] = test system: SF-539 CNS
# [27] = test system: UACC-62 melanoma
# [28] = test system: HCT-15 colon
# [29] = test system: T-47D breast
# [30] = test system: OVCAR-4 ovarian
# [31] = test system: SN12C renal
# [32] = test system: UACC-257 melanoma
# [33] = test system: BT-549 breast
# [34] = test system: MDA-MB-435 melanoma
# [35] = test system: SW-620 colon
# [36] = test system: MALME-3M melanoma
# [37] = test system: OVCAR-3 ovarian
# [38] = test system: NCI-H226 lung
# [39] = test system: SNB-75 CNS
# [40] = test system: CAKI-1 renal
# [41] = test system: NCI-H322M lung
# [42] = test system: SNB-19 CNS
# [43] = test system: OVCAR-5 ovarian
# [44] = test system: MDA-MB-231 breast
# [45] = test system: HCT-116 colon
# [46] = test system: HOP-62 NSCLC
# [47] = test system: SF-268 CNS
# [48] = test system: MCF7 breast
# [49] = test system: U251 glioblastoma
# [50] = test system: M14 melanoma
# [51] = test system: SK-MEL-2 melanoma
# [52] = test system: NCI-H23 lung
# [53] = test system: HCC-2998 colon
# [54] = test system: MOLT-4 leukemia
# [55] = test system: NCI-H460 NSCLC
# [56] = test system: RXF 393 renal
# [57] = test system: COLO 205 colon
# [58] = test system: SK-MEL-5 melanoma
# [59] = test system: LOX IMVI melanoma
structure (smiles),measurement,setting,value
CC[C@]1(O)C[C@H]2CN(CCc3c([nH]c4ccccc34)[C@@](C(=O)OC)(c3cc4c(cc3OC)N(C)[C@H]3[C@@](O)(C(=O)OC)[C@H](OC(C)=O)[C@]5(CC)C=CCN6CC[C@]43[C@@H]65)C2)C1,GI50,[1],< 11.6 nM
same,TGI,[1],< 16.8 nM
same,GI50,[2],< 39 nM
same,TGI,[2],4400 nM
same,TGI,[3],< 18.8 nM
same,GI50,[4],< 20.6 nM
same,TGI,[4],904 nM
same,GI50,[5],< 19.9 nM
same,GI50,[6],454 nM
same,TGI,[6],1020 nM
same,GI50,[7],< 26.9 nM
same,TGI,[7],14600 nM
same,GI50,[8],< 21.2 nM
same,TGI,[8],14100 nM
same,GI50,[9],< 14.1 nM
same,TGI,[9],< 19.6 nM
same,GI50,[10],< 19.1 nM
same,TGI,[10],4130 nM
same,TGI,[11],6080 nM
same,GI50,[12],< 13.6 nM
same,TGI,[12],< 20.8 nM
same,GI50,[13],30.4 nM
same,TGI,[13],11900 nM
same,GI50,[14],33.1 nM
same,TGI,[14],13800 nM
same,GI50,[15],< 39 nM
same,TGI,[15],14600 nM
same,GI50,[16],< 14.9 nM
same,TGI,[16],< 20.7 nM
same,GI50,[17],< 16.4 nM
same,TGI,[17],< 28.4 nM
same,GI50,[18],66.4 nM
same,TGI,[18],8390 nM
same,GI50,[19],157 nM
same,TGI,[19],7780 nM
same,GI50,[20],31.5 nM
same,TGI,[20],10700 nM
same,TGI,[21],< 11.1 nM
same,GI50,[22],< 13.6 nM
same,TGI,[22],< 18.2 nM
same,GI50,[23],< 19.5 nM
same,TGI,[23],11800 nM
same,GI50,[24],< 14.8 nM
same,TGI,[24],< 22.6 nM
same,GI50,[25],< 18.7 nM
same,GI50,[26],< 14.3 nM
same,TGI,[26],< 21.5 nM
same,GI50,[27],< 17.1 nM
same,GI50,[28],52 nM
same,TGI,[28],10400 nM
same,GI50,[29],544 nM
same,TGI,[29],19900 nM
same,GI50,[30],357 nM
same,TGI,[30],14700 nM
same,GI50,[31],< 25 nM
same,TGI,[31],14700 nM
same,GI50,[32],412 nM
same,TGI,[32],10600 nM
same,GI50,[33],< 16.2 nM
same,TGI,[33],42.6 nM
same,GI50,[34],< 13.7 nM
same,TGI,[34],< 21.1 nM
same,GI50,[35],< 20.2 nM
same,TGI,[35],16300 nM
same,GI50,[36],< 23.8 nM
same,TGI,[36],16400 nM
same,GI50,[37],< 15.1 nM
same,TGI,[37],< 26.5 nM
same,GI50,[38],< 26.3 nM
same,TGI,[38],13000 nM
same,GI50,[39],< 20.6 nM
same,GI50,[40],< 22.6 nM
same,TGI,[40],3880 nM
same,GI50,[41],< 24.5 nM
same,TGI,[41],20300 nM
same,GI50,[42],< 21.6 nM
same,TGI,[42],2300 nM
same,GI50,[43],< 21.1 nM
same,TGI,[43],16800 nM
same,GI50,[44],< 20.5 nM
same,TGI,[44],8400 nM
same,GI50,[45],< 17.8 nM
same,TGI,[45],595 nM
same,GI50,[46],< 17.5 nM
same,TGI,[46],1250 nM
same,GI50,[47],< 20.3 nM
same,TGI,[47],4860 nM
same,GI50,[48],< 19.1 nM
same,TGI,[48],3170 nM
same,GI50,[49],< 17.7 nM
same,GI50,[50],22.7 nM
same,TGI,[50],13200 nM
same,GI50,[51],< 16.2 nM
same,TGI,[51],< 25.4 nM
same,GI50,[52],25.8 nM
same,TGI,[52],79.6 nM
COc1cc2c(NC3CCN(C(C)C)CC3)nc(C3CCCCC3)nc2cc1OCCCN1CCCC1,GI50,[1],368 nM
same,TGI,[1],1130 nM
same,GI50,[2],1530 nM
same,TGI,[2],11300 nM
same,GI50,[3],484 nM
same,TGI,[3],1740 nM
same,GI50,[4],1410 nM
same,TGI,[4],2970 nM
same,GI50,[5],683 nM
same,TGI,[5],1960 nM
same,GI50,[6],69000 nM
same,TGI,[6],> 100000 nM
same,GI50,[7],1280 nM
same,TGI,[7],2560 nM
same,GI50,[8],1560 nM
same,TGI,[8],3000 nM
same,GI50,[9],634 nM
same,TGI,[9],1830 nM
same,GI50,[10],1350 nM
same,TGI,[10],2650 nM
same,GI50,[11],1790 nM
same,TGI,[11],3800 nM
same,GI50,[12],1750 nM
same,TGI,[12],3140 nM
same,GI50,[13],807 nM
same,TGI,[13],2860 nM
same,GI50,[14],991 nM
same,TGI,[14],2520 nM
same,GI50,[15],1260 nM
same,TGI,[15],2530 nM
same,GI50,[16],262 nM
same,TGI,[16],587 nM
same,GI50,[17],1540 nM
same,TGI,[17],2910 nM
same,GI50,[18],1200 nM
same,TGI,[18],2460 nM
same,GI50,[19],1320 nM
same,TGI,[19],2720 nM
same,GI50,[20],285 nM
same,TGI,[20],1110 nM
same,GI50,[21],429 nM
same,TGI,[21],1070 nM
same,GI50,[22],205 nM
same,TGI,[22],397 nM
same,GI50,[23],1430 nM
same,TGI,[23],4160 nM
same,GI50,[53],1560 nM
same,TGI,[53],3010 nM
same,GI50,[24],1800 nM
same,TGI,[24],3210 nM
same,GI50,[25],1230 nM
same,TGI,[25],4290 nM
same,GI50,[26],292 nM
same,TGI,[26],937 nM
same,GI50,[27],1750 nM
same,TGI,[27],3150 nM
same,GI50,[28],1240 nM
same,TGI,[28],5200 nM
same,GI50,[29],573 nM
same,TGI,[29],1830 nM
same,GI50,[54],552 nM
same,TGI,[54],1910 nM
same,GI50,[55],365 nM
same,TGI,[55],1040 nM
same,GI50,[30],1120 nM
same,TGI,[30],2440 nM
same,GI50,[31],1120 nM
same,TGI,[31],2950 nM
same,GI50,[32],1250 nM
same,TGI,[32],2510 nM
same,GI50,[33],378 nM
same,TGI,[33],1340 nM
same,GI50,[34],1160 nM
same,TGI,[34],2400 nM
same,GI50,[35],1550 nM
same,TGI,[35],2910 nM
same,GI50,[56],347 nM
same,TGI,[56],1400 nM
same,GI50,[36],1370 nM
same,TGI,[36],2680 nM
same,GI50,[37],835 nM
same,TGI,[37],2080 nM
same,GI50,[38],1790 nM
same,TGI,[38],3940 nM
same,GI50,[39],1400 nM
same,TGI,[39],2710 nM
same,GI50,[40],1390 nM
same,TGI,[40],2720 nM
same,GI50,[57],1330 nM
same,TGI,[57],2640 nM
same,GI50,[58],873 nM
same,TGI,[58],2120 nM
same,GI50,[41],1490 nM
same,TGI,[41],3010 nM
same,GI50,[42],1230 nM
same,TGI,[42],3100 nM
same,GI50,[43],1970 nM
same,TGI,[43],4260 nM
same,GI50,[44],1610 nM
same,TGI,[44],3340 nM
same,GI50,[45],550 nM
same,TGI,[45],1750 nM
same,GI50,[46],1710 nM
same,TGI,[46],3140 nM
same,GI50,[47],307 nM
same,TGI,[47],1520 nM
same,GI50,[48],1110 nM
same,TGI,[48],2400 nM
same,GI50,[49],1030 nM
same,TGI,[49],2200 nM
same,GI50,[59],1450 nM
same,TGI,[59],2790 nM
same,GI50,[50],1740 nM
same,TGI,[50],3140 nM
same,GI50,[52],1950 nM
same,TGI,[52],4650 nM
